Legend:
[1] = target: Tyrosine-protein kinase JAK1 (Homo sapiens, UniProt P23458)
[2] = Apparent permeability in MDCK-II cells; assay type: ADME, cell-based, Canis lupus familiaris; settings: dog
[3] = Clearance in human liver microsomes assessed per mg protein; assay type: ADME, Microsome; settings: read-out: CLH
[4] = target: T1, Tyrosine-protein kinase JAK3 (Homo sapiens, UniProt P52333); test: Inhibition of recombinant human GST-tagged JAK3 catalytic domain (781 to 1124 residues) expressed in baculovirus expression system using FITC-KGGEEEEYFELVKK as substrate in presence of ATP at Km by microfluidic assay
T1 sequence (P52333 whole entry): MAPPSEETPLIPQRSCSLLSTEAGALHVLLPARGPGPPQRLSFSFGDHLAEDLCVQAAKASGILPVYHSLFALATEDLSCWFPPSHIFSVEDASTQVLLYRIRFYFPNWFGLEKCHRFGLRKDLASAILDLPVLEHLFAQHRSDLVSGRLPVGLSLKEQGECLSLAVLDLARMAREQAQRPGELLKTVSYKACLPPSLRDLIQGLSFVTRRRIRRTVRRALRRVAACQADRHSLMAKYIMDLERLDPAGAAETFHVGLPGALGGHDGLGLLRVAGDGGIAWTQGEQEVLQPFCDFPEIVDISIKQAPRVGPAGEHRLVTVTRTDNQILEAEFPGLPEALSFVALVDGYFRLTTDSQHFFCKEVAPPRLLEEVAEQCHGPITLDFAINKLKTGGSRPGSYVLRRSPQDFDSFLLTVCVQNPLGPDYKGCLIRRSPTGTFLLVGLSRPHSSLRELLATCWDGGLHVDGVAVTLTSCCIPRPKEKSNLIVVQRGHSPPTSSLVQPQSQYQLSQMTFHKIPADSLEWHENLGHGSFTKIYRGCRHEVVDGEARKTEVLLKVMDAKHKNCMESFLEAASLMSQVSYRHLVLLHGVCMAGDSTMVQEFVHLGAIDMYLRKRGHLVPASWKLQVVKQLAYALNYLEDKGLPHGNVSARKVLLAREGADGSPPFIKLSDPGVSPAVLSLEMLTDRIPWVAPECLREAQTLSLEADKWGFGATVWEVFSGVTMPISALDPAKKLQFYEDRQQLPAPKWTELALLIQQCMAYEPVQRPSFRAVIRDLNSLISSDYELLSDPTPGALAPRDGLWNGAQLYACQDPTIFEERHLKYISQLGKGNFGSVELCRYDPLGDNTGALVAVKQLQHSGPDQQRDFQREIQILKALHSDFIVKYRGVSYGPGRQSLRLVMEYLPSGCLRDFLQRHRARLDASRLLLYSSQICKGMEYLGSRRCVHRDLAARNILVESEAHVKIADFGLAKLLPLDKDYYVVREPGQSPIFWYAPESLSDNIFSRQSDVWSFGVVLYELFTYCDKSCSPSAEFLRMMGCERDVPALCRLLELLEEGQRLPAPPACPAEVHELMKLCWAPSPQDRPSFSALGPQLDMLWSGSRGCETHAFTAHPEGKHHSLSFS

[5] = target: Non-receptor tyrosine-protein kinase TYK2 (Homo sapiens, UniProt P29597); test: biochemical
[6] = target: T2, Tyrosine-protein kinase JAK2 (Homo sapiens, UniProt O60674); test: Inhibition of recombinant human GST-tagged JAK2 catalytic domain (809 to 1153+9 residues) expressed in baculovirus expression system using FITC-KGGEEEEYFELVKK as substrate in presence of ATP at Km by microfluidic assay
[7] = physchem; settings: octanol/water phosphate buffer, pH 7.4
Description: Octanol/water phosphate buffer partition coefficient, log D of compound at pH 7.4 by shake-flask method

[8] = Apparent clearance in human hepatocytes assessed per million cells; assay type: ADME, cell-based, Hepatocyte; settings: read-out: CLH
[9] = Fraction unbound in human plasma; assay type: ADME, cell-free
[10] = target: T2, Tyrosine-protein kinase JAK2; test: Inhibition of JAK2 homodimer signaling pathway in human whole blood spiked with CD34 +ve cells assessed as reduction in EPO induced STAT5 phosphorylation preincubated for 45 mins followed by EPO addition and measured measured after 15 mins by immunostaining based FACS assay; assay type: tissue-based
[11] = organism: Homo sapiens; test: Selectivity ratio of IC50 for recombinant human GST-tagged JAK2 catalytic domain (809 to 1153+9 residues) expressed in baculovirus expression system to IC50 for inhibition of recombinant human His-tagged TYK2 expressed in baculovirus infected Sf21 cells
[12] = tested on: TYK2/JAK2 (Homo sapiens); settings: Blood, time 60.0 min

Chain of Non-receptor tyrosine-protein kinase TYK2 (P29597 whole entry, the tested form may be a part): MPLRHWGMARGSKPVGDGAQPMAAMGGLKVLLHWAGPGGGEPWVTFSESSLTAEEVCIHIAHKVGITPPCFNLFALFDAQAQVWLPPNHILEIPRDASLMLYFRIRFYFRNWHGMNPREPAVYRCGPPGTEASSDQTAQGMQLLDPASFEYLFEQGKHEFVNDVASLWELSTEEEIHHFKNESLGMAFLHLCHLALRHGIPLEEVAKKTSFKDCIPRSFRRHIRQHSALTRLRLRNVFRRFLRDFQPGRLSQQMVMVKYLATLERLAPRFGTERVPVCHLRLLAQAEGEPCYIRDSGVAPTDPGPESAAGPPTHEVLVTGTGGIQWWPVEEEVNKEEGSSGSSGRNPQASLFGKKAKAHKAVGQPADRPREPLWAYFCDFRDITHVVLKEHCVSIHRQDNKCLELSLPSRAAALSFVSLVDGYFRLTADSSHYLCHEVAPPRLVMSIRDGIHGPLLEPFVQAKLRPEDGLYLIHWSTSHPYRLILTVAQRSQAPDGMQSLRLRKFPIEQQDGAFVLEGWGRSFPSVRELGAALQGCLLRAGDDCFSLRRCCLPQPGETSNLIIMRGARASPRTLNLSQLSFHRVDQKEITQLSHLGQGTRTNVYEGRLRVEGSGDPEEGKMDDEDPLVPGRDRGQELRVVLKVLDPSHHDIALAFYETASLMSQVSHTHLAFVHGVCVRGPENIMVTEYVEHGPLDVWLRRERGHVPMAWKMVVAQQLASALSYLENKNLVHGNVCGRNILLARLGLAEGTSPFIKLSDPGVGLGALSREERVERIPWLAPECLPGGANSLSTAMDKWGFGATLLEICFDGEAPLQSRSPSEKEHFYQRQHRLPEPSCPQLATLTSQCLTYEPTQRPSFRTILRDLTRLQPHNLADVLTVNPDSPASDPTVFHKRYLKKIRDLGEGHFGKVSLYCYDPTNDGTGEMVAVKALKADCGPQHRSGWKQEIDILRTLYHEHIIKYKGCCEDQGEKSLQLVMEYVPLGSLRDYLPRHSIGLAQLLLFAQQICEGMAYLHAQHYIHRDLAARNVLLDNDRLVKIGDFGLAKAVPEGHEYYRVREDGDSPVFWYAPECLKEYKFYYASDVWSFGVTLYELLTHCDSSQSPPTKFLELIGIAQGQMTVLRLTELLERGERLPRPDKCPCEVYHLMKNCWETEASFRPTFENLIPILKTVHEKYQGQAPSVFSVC
T2 sequence (O60674 whole entry, the tested form may be a part): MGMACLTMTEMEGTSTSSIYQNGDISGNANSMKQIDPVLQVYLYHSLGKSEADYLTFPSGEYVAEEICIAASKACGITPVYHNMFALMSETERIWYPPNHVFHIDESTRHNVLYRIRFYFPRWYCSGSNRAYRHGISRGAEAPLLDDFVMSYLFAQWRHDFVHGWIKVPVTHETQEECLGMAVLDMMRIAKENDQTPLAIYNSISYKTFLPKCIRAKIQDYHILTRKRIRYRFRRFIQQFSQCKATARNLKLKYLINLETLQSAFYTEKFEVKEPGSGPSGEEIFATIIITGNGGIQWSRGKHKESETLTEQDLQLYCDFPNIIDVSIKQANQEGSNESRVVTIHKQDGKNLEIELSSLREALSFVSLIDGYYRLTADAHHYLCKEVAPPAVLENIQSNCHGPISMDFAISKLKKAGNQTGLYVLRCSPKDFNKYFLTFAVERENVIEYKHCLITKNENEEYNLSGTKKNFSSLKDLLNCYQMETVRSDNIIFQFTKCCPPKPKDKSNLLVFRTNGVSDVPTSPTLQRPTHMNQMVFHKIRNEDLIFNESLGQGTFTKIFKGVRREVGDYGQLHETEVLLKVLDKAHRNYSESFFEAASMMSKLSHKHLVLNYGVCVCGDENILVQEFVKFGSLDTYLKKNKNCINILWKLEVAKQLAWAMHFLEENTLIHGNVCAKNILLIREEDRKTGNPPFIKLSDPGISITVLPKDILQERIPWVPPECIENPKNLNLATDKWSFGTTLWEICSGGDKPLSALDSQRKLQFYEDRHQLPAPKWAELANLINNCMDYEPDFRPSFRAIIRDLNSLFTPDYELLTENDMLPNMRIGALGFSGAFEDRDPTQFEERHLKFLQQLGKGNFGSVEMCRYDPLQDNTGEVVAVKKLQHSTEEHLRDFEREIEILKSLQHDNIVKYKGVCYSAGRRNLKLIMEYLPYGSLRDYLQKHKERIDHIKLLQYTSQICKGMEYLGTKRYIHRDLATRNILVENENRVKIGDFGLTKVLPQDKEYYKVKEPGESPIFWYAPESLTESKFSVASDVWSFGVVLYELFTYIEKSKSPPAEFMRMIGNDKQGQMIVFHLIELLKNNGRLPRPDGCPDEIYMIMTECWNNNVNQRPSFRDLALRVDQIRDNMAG
Chain of Tyrosine-protein kinase JAK1 (P23458 whole entry): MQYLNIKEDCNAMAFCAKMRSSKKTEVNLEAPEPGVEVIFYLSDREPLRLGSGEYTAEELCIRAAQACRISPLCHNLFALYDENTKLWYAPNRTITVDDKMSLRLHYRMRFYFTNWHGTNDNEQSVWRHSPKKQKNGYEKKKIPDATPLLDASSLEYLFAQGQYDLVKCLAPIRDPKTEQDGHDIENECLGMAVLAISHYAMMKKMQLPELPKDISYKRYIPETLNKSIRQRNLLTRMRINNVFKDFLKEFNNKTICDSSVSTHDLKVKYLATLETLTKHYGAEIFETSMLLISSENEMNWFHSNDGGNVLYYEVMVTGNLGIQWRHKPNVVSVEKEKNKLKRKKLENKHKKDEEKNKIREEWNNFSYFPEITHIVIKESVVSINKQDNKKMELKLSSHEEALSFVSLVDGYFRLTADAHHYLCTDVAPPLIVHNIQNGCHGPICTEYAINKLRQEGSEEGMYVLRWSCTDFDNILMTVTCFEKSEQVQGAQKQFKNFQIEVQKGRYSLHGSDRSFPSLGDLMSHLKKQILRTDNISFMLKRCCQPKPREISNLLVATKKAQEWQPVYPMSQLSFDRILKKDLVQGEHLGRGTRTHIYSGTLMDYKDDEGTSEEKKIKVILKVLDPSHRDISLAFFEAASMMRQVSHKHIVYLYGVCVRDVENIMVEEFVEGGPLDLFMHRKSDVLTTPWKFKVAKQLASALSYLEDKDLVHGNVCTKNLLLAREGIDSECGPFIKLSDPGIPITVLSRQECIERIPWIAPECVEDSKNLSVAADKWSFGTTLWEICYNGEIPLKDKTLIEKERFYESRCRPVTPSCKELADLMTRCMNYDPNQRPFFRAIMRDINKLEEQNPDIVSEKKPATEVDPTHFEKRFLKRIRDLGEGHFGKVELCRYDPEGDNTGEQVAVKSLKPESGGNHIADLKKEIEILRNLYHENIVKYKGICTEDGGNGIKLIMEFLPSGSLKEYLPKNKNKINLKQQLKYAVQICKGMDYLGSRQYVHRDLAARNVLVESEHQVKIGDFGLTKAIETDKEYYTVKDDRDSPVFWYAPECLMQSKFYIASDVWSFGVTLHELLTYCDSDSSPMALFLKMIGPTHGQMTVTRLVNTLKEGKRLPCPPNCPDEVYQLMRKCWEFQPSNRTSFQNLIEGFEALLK

Row | SMILES | IC50 [1] [nM] | Papp [2] [×10⁻⁶ cm/s] | microsomal CLint [3] [µL/min/mg] | IC50 [4] [nM] | IC50 [5] [nM] | IC50 [6] [nM] | logD [7] | hepatocyte CLint [8] [µL/min/1e6 cells] | fraction unbound [9] | IC50 [10] [nM] | Ratio IC50 [11] | fIC50 [12] [nM]
1 | Cn1ccc(-c2cn3nccc3c(-c3cnn([C@]4(CC#N)C[C@H](C#N)C4)c3)n2)n1 | 261 | 14 | 23 | > 9590 | 10 | 45 | 1.6 |  |  |  |  | 
2 | Cn1cc(-c2cn3nccc3c(-c3cnn([C@]4(CC#N)C[C@H](CC#N)C4)c3)n2)cn1 |  | 21 | 10 |  |  |  | 1.8 |  |  |  |  | 
3 | CC(=O)N1CC(CC#N)(n2cc(-c3nc(-c4cnn(C)c4)cn4nccc34)cn2)C1 | 6110 | 4 | < 8 | > 10000 | 678 | 1750 | 1.2 |  |  |  |  | 
4 | Cn1cc(-c2cn3nccc3c(-c3cnn([C@]4(CC#N)C[C@H](C#N)C4)c3)n2)cn1 |  | 15 | 17 |  |  |  | 1.8 | 12 | 0.34 |  |  | 
5 | Cn1cc(-c2cn3nccc3c(-c3cnn(C4(CC#N)CN(CCO)C4)c3)n2)cn1 | 5580 | 7 | < 8 | > 10000 | 189 | 1040 | 1.2 |  |  |  |  | 
6 | Cn1cc(-c2cn3nccc3c(-c3cnn(C4(CC#N)CN(CC5CC5)C4)c3)n2)cn1 | 933 | 27 | 30 | > 10000 | 40 | 187 |  |  |  |  |  | 
7 | Cn1cc(-c2cn3nccc3c(-c3cnn([C@]4(CC#N)C[C@@H](CC#N)C4)c3)n2)cn1 |  | 20 | 11 |  |  |  | 1.9 |  |  |  |  | 
8 | N#CC[C@]1(n2cc(-c3nc(-c4cn[nH]c4)cn4nccc34)cn2)C[C@@H](C#N)C1 | 22 | 6 | 44 | 2240 | 8 | 22 | 1.6 |  |  |  |  | 
9 | Cn1cc(-c2cc(-c3cnn(C4(CC#N)CN(CC(F)(F)F)C4)c3)n3ncnc3c2)cn1 |  |  |  |  | 476 |  | 2.3 |  |  |  |  | 
10 | Cn1cc(-c2cc(-c3cnn(C4(CC#N)CN(CC(F)(F)F)C4)c3)n3ccnc3c2)cn1 |  |  |  |  | 290 |  | 2.1 |  |  |  |  | 
11 | N#CC[C@]1(n2cc(-c3nc(-c4cn[nH]c4)cn4nccc34)cn2)C[C@H](C#N)C1 | 398 | 7 | 19 | > 10000 | 44 | 280 | 1.7 |  |  |  |  | 
12 | Cn1cc(-c2cn3nccc3c(-c3cnn(C4(CC#N)CN(CC(F)(F)F)C4)c3)n2)cn1 | 358 | 18 | 18 | > 9850 | 10 | 65 | 2.5 |  |  |  |  | 
13 | N#CC[C@]1(n2cc(-c3nc(-c4cc[nH]n4)cn4nccc34)cn2)C[C@@H](C#N)C1 | 43 | 7 | 20 | 4450 | 9 | 31 | 1.7 |  |  |  |  | 
14 | CCN1CC(CC#N)(n2cc(-c3nc(-c4cnn(C)c4)cn4nccc34)cn2)C1 | 2670 | 33 | 21 | > 10000 | 46 | 346 | 2.1 |  |  |  |  | 
15 | Cn1cc(-c2cn3nccc3c(-c3cnn(C4(CC#N)CN(CC#N)C4)c3)n2)cn1 |  | 11 | < 8 |  |  |  | 1.5 |  |  |  |  | 
16 | Cn1cc(-c2cc(-c3cnn(C4(CC#N)CN(CC(F)(F)F)C4)c3)n3cnnc3c2)cn1 |  |  |  |  | > 10000 |  | 1.2 |  |  |  |  | 
17 | CO[C@H]1C[C@](CC#N)(n2cc(-c3nc(-c4cnn(C)c4)cn4nccc34)cn2)C1 |  | 22 | < 8 |  |  |  | 2.3 | 6 | 0.3 | 1100 |  | 
18 | N#CC[C@]1(n2cc(-c3nc(-c4cc[nH]n4)cn4nccc34)cn2)C[C@H](C#N)C1 | 284 | 17 | < 8 | > 10000 | 26 | 172 | 1.7 | 7 | 0.32 |  | 7 | 334
19 | Cn1ccc(-c2cn3nccc3c(-c3cnn([C@]4(CC#N)C[C@@H](C#N)C4)c3)n2)n1 | 2530 | 20 | < 8 | > 10000 | 67 | 467 | 1.6 | < 2 | 0.2 |  | 7 | 254
20 | CO[C@H]1C[C@@](CC#N)(n2cc(-c3nc(-c4cnn(C)c4)cn4nccc34)cn2)C1 |  | 20 | 27 | > 10000 |  |  | 2.2 |  |  |  |  | 

From ChEMBL document CHEMBL4673239, “Discovery of Tyrosine Kinase 2 (TYK2) Inhibitor (PF-06826647) for the Treatment of Autoimmune Diseases” (J Med Chem, 2020)
